A word on the EC50: it is the concentration that produces a half-maximal response.

Structures are written as SMILES.

The text below walks through data of patent US11504382B2, “Tricyclic inhibitors of Hepatitis B virus” (Antios Therapeutics, Inc., priority 2018, dated 2022).

This experiment relates to HBV. In words: HBV inhibition assay in HepAD38 cells (extracellular HBV DNA by direct qPCR). The note with it: Hepatitis B virus, 96 hours; for EC50: 8-point dose-response curve, read-out: HBV inh EC50. It counts as cell-based, Hepatitis B virus. A general note: In qPCR the cycle at which signal appears reflects the starting amount.
The mark [1] stands for this setting: relative to non-treated reference, read-out: Anti HBV Activity (conc μM).

For `C[C@H](N)C(=O)N1C[C@@H]2COc3c(cn(C)c3C(=O)Nc3cc(F)c(F)c(F)c3)S(=O)(=O)N[C@@H]2C1` (mixture of isomers) [Example E67, cis-2-(L-alanyl)-7-methyl-N-(3,4,5-trifluorophenyl)-2,3,3a,4,10,10a-hexahydro-1H,7H-dipyrrolo[3,4-b:3′,4′-f][1,4,5]oxathiazocine-8-carboxamide 5,5-dioxide], the inhibition at 0.1 µM under setting [1] is below 50%.
Same read-out and setting: as for `Cn1cc2c(c1C(=O)Nc1cc(F)c(F)c(F)c1)OC[C@H]1CN(C(=O)[C@@H](N)CO)C[C@H]1NS2(=O)=O` (mixture of isomers) [Example E68, cis-2-(L-seryl)-7-methyl-N-(3,4,5-trifluorophenyl)-2,3,3a,4,10,10a-hexahydro-1H,7H-dipyrrolo[3,4-b:3′,4′-f][1,4,5]oxathiazocine-8-carboxamide 5,5-dioxide], the figure is below 50%; as for `C[C@@H](O)[C@H](N)C(=O)N1C[C@@H]2COc3c(cn(C)c3C(=O)Nc3cc(F)c(F)c(F)c3)S(=O)(=O)N[C@@H]2C1` (mixture of isomers) [Example E69, cis-2-(L-threonyl)-7-methyl-N-(3,4,5-trifluorophenyl)-2,3,3a,4,10,10a-hexahydro-1H,7H-dipyrrolo[3,4-b:3′,4′-f][1,4,5]oxathiazocine-8-carboxamide 5,5-dioxide], below 50%.
On to `CCOC(=O)N1CC2CCOc3c(cn(C)c3C(=O)Nc3cc(F)c(F)c(F)c3)S(=O)(=O)NC2C1` (mixture of isomers) [Example E156, Cis/Trans Ethyl 7-methyl-8-((3,4,5-trifluorophenyl)carbamoyl)-1,3a,4,10,11,11a-hexahydro-7H-dipyrrolo[3,4-b:3′,4′-f][1,4,5]oxathiazocine-2(3H)-carboxylate 5,5-dioxide], for which the EC50 is below 1000 nM.
Turning to `Cn1cc2c(c1C(=O)Nc1ccc(F)c(F)c1)OC1COCC1NS2(=O)=O` (racemic) [Example E4, trans-N-(3,4-difluorophenyl)-7-methyl-1,3a,4,9a-tetrahydro-3H,7H-furo[3,4-f]pyrrolo[3,4-b][1,4,5]oxathiazepine-8-carboxamide 5,5-dioxide], the EC50 is below 1000 nM. Besides, the inhibition at 1 µM (1 μM, relative to non-treated reference, read-out: Anti HBV Activity (conc μM)) is above 50%.
As for `Cn1cc2c(c1C(=O)Nc1ccc(F)c(F)c1)OCC1CCCC1NS2(=O)=O` (racemic) [Example E6, cis-N-(3,4-difluorophenyl)-2-methyl-5a,6,7,8,8a,9-hexahydro-2H,5H-cyclopenta[f]pyrrolo[3,4-b][1,4,5]oxathiazocine-1-carboxamide 4,4-dioxide], the EC50 was below 1000 nM. Moreover, the inhibition at 0.5 µM under setting [1] is above 50%.
Regarding `Cn1cc2c(c1C(=O)Nc1cc(F)c(F)c(F)c1)OC1COCC1NS2(=O)=O` (racemic) [Example E7, trans-7-methyl-N-(3,4,5-trifluorophenyl)-1,3a,4,9a-tetrahydro-3H,7H-furo[3,4-f]pyrrolo[3,4-b][1,4,5]oxathiazepine-8-carboxamide 5,5-dioxide], the EC50 was below 1000 nM.
Turning to `CCOC(=O)N1CC2COc3c(cn(C)c3C(=O)Nc3cc(F)c(F)c(F)c3)S(=O)(=O)NC2C1` (racemic) [Example E10, Cis-Ethyl 7-methyl-8-((3,4,5-trifluorophenyl)carbamoyl)-3a,4,10,10a-tetrahydro-1H,7H-dipyrrolo[3,4-b:3′,4′-f][1,4,5]oxathiazocine-2(3H)-carboxylate 5,5-dioxide], the EC50 is below 1000 nM. Also, the inhibition at 0.5 µM under setting [1] was above 50%.
`Cn1cc2c(c1C(=O)Nc1cc(F)c(F)c(F)c1)OCC1CNCC1NS2(=O)=O` (racemic) [Example E11, cis-7-methyl-N-(3,4,5-trifluorophenyl)-2,3,3a,4,10,10a-hexahydro-1H,7H-dipyrrolo[3,4-b:3′,4′-f][1,4,5]oxathiazocine-8-carboxamide 5,5-dioxide]: the EC50 was below 1000 nM. Under setting [1], the inhibition at 0.1 µM was above 50%.
